Broadly, the LD50 is the dose at which mortality reaches 50%. Low readings indicate greater toxicity, high ones lower toxicity. The term IC50 denotes the concentration that inhibits the measured activity by half. Read a low IC50 as greater potency.

From patent EP0200818A1, “Derivatives of the pluramycin group having anti-tumor activity, process for their preparation and their use as medicaments” (MICROBIAL CHEMISTRY RESEARCH FOUNDATION, priority 1984, dated 1986) come the findings set out here.

The nature of data set [1]: Acute toxicity (LD50), single intraperitoneal injection. The conditions noted are these: single intraperitoneal injection in mice. The class given is in vivo. The method, then: The LD50 of 5',6'-dehydrokidamycin for a single intraperitoneal injection in mice was 100 mg/kg.
For data set [2], the system named is cultured leukemia cell L 1210. The experiment in a line: Cytotoxicity: growth inhibition of cultured leukemia cells. The class given is cell-based. The conditions noted are these: growth of cultured leukemia cell L 1210. The method, then: The growth of cultured leukemia cell L 1210 was inhibited by 0.07 µg/ml (IC50) of 5',6'~dehydrokidamycin.
In the next data set the test system is L 1210 leukemia cells. Briefly: Anti-tumor activity: life prolongation of mice transplanted intraperitoneally with L 1210 leukemia cells. The format is in vivo, CDF1 mice. The conditions noted are these: observed for 30 days, survival of physiological saline control mice = 100. The method, then:
A suspension of 1 x 10^5 L 1210 leukemia cells was transplated intraperitoneally in each of the CDF1 mice tested. Thereafter, 5',6'-dehydrokidamycin was injected intraperitoneally for 10 days in predetermined amounts, 10, 5, 2.5, 1.25, 0.625 and 0.3125 mg/kg.

In data set [1], 5',6'-dehydrokidamycin yielded a 50% lethal dose (LD50) of 100 mg/kg. Further, the half-maximal inhibitory concentration (IC50) in data set [2] was 0.07 mg/L. Also, the Percent life prolongation in the data set with L 1210 leukemia cells (0.3125 mg/kg/day intraperitoneally for 10 days) came to 147%; in the data set on L 1210 leukemia cells (0.625 mg/kg/day intraperitoneally for 10 days), 133%; with L 1210 leukemia cells (1.25 mg/kg/day intraperitoneally for 10 days), 133%; with L 1210 leukemia cells (2.5 mg/kg/day intraperitoneally for 10 days), 133%; in the data set with L 1210 leukemia cells (5 mg/kg/day intraperitoneally for 10 days), 173%; with L 1210 leukemia cells (10 mg/kg/day intraperitoneally for 10 days), 153%.
